Data set [1] concerns MC38 cells. Description: MTT cell proliferation assay. The settings on record: Mus musculus, MC-38, read-out: Cytotoxicity (IC50). In kind it is cell-based, murine. For orientation: Formazan colour is commonly taken as a measure of viable cells.
Data set [2] concerns rats. Conditions: given over 22 days; cited from earlier work.
Data set [3] can be described thus: Solubility in PBS. In kind it is physicochemical. Conditions: aqueous buffer.

Each structure is given as a SMILES string. In brackets after ≈: the same amount, converted by molar mass. Structures can show the parent of a compound that is named as a salt.

By IC50 is commonly meant the midpoint of a concentration-inhibition curve. As a reminder, the solubility is the dissolved amount per volume that the medium holds. The low end stands for little dissolved substance, the high end for much dissolved substance.

As to `COc1cccc2c1C(=O)c1c(O)c3c(c(O)c1C2=O)C[C@@](O)(C(=O)CO)C[C@@H]3O[C@H]1C[C@H](N)[C@H](O)[C@H](C)O1` [Dox HCl, doxorubicin], the IC50 in data set [1] turned out to be 0.023 µM. In addition, the “Multi-dose MTD of conventional Dox” value in data set [2] is 10 mg/kg. Further, the solubility in data set [3] came to 3800 µg/mL. As for `COc1cc([C@@H]2c3cc4c(cc3[C@@H](O[C@@H]3O[C@@H]5CO[C@@H](C)O[C@H]5[C@H](O)[C@H]3O)[C@H]3COC(=O)[C@H]23)OCO4)cc(OC)c1O` [ETP, etoposide], the IC50 in data set [1] turned out to be 0.16 µM. In data set [3], this compound had a solubility of 2800 µg/mL (≈ 4.76 mM). Take `Nc1ccn([C@@H]2O[C@H](CO)[C@@H](O)C2(F)F)c(=O)n1` [GCB HCl, gemcitabine]: the half-maximal inhibitory concentration (IC50) in data set [1] amounted to 0.003 µM. As to `CC(=O)O[C@H]1C(=O)[C@@]2(C)[C@H]([C@H](OC(=O)c3ccccc3)[C@]3(O)C[C@H](OC(=O)[C@H](O)[C@@H](NC(=O)c4ccccc4)c4ccccc4)C(C)=C1C3(C)C)[C@]1(OC(C)=O)CO[C@@H]1C[C@@H]2O` [PTX, paclitaxel], in data set [1], the IC50 amounted to 0.032 µM.

Source of the values: paper PMC8179178 (Chemical Science, 2021).
